Assays:
[1] = Oral administration of oxycodone prodrugs co-dosed with trypsin inhibitor Compound 109 to rats; assay type: in vivo, rat
[2] = Oral administration of hydrocodone prodrugs KC-40 or KC-50 co-dosed with Compound 109 to rats; conditions: for Cmax: HC Cmax ± sd
[3] = Pharmacokinetics following PO administration of increasing doses of Compound KC-31 to rats; conditions: male, Sprague Dawley, rat, plasma, 10 mg/kg
[4] = Pharmacokinetics of hydrocodone prodrugs following PO administration to dogs, with or without Compound 109
[5] = Oral administration of Compound KC-55 co-dosed with Compound 109 to rats; conditions: male, Sprague Dawley, rat, plasma, 36 umol/kg
[6] = Pharmacokinetics following PO administration of Compound KC-55 to rats; conditions: oxycodone in rat plasma, oxycodone 10 mg/kg (28 μmol/kg)
[7] = Spacer leaving group cyclization release rate in pH 7.4 phosphate buffer

In the case of `N=C(N)c1ccc2cc(OC(=O)c3ccc(N=C(N)N)cc3)ccc2c1` [Compound 109, 6-carbamimidoylnaphthalen-2-yl 4-(diaminomethyleneamino)benzoate], the “effect of co-dosed trypsin inhibitor on release of oxycodone by prodrugs KC-12 and KC-17” value [1] is reported as “ability to attenuate release of oxycodone” and the “effect of co-dosed trypsin inhibitor on release of hydrocodone by prodrugs KC-40 and KC-50” value ([2]; rats, PO) is reported as “ability to attenuate release of hydrocodone”.
In the case of `COc1ccc2c3c1O[C@H]1C(=O)CC[C@H]4[C@@H](C2)N(C)CC[C@]314` [Hydrocodone, hydrocodone], the Cmax [3] is reported as 5.49 ± 1.7 ng/mL, the Tmax [3] is reported as 1.06 ± 0.72 h and the “HC Cmax ± sd” value ([4]; Table 12: dog, […] values adjusted to expected value for a 2 μmol/kg dose (4 dose equivalents)) is reported as 56.0 n/a^ ng/mL. The “HC Cmax ± sd” value ([4]; Table 12: dog, […] values adjusted to expected value for a 5 μmol/kg dose (10 dose equiv)) was 140 n/a^ ng/mL, the “HC Cmax ± sd” value ([4]; Table 13: dog plasma, PO, hydrocodone […] (0.5 μmol/kg)) was 14.0 ± 4.3^ ng/mL and the “HC Cmax ± sd” value ([4]; Table 13: dog, […] values adjusted to expected value for a 5 μmol/kg dose (10 dose equiv)) was 140 n/a^ ng/mL. It also gave a Tmax ([2]; Sprague Dawley, rat, plasma, po, […]) of 1.06 h, a Cmax ([2]; Sprague Dawley, rat, plasma, po, […], Table 11A: hydrocodone values in Table 10 adjusted to provide expected values at a […] (62 μmol/kg) dose, rat) of 11.9 ng/mL and a Cmax ([2]; Sprague Dawley, rat, plasma, po, […], Table 11B: hydrocodone values in Table 10 adjusted to provide expected values at a 62 μmol/kg ([…]) dose, rat) of 12.4 ng/mL. The “Tmax ± sd” value ([2]; Table 11B: hydrocodone values in Table 10 adjusted to provide expected values at a 62 μmol/kg ([…]) dose, rat) was 1.06 h.
In the case of `COc1ccc2c3c1O[C@H]1C(=O)CC[C@@]4(O)[C@@H](C2)N(C)CC[C@]314` [Oxycodone, oxycodone], the Cmax [5] is reported as 18.8 ng/mL and the “OC Cmax ± sd” value [6] is reported as 14.7 ± 6.5^ ng/mL.
For `COc1ccc2c3c1O[C@H]1C(OC(=O)N4CCCC[C@@H]4CN)=CC[C@@]4(O)[C@@H](C2)N(C)CC[C@]314` [Compound KC-18, N-(oxycodone-6-enol-carbonyl)-R-(piperidine-2-methylamine)], the half-life at 2.18 mM [7] was 0.875 ± 0.016 h.
